Source: patent publication US20050009886A1, “1,4-Dihydropyridine derivative with a guaiacoxypropanolamine and/or phenoxypropanolamine moiety” (priority 1998, published 2005)

Columns and labels:
[1] = biological target: T1, β2-adrenoceptor (Cavia porcellus, UniProt Q8K4Z4); assay: Direct effect (intrinsic sympathomimetic activity) on reserpine pretreated isolated tracheal; design: species or system guinea pig; settings: cumulative 10^−10˜3×10^−6 M, reserpine pretreated tracheal
T1 construct: a portion of tracheal approximately 4 cm long was removed; from tissue; host or cells: isolated trachea of reserpine-pretreated guinea pigs
Experimental: 18˜24 hours before the experiment, 5 mg/kg of reserpine was injected via abdominal cavity to remove all endogenous catecholamines. Prior experiment, guinea pigs were sacrificed, the tracheal was immediately removed and placed in Kreb's solution aerated with air mixture and maintained at room temperature of 22˜25° C. […] Then the tissue was repeatedly washed with Kreb's solution.

[2] = biological target: T2, β-adrenoreceptor (β1) (Rattus norvegicus, UniProt P18090); assay: Isolated right atrium, L-isoproterenol-induced heart rate increase (pA2); design: species or system Wistar rat
T2 construct: The right and left atria were then separated; from tissue; host or cells: isolated rat right atrium (spontaneously beating) and left atrium (electrically paced)
Experimental: The right and left atria were then separated. The spontaneously-beating right atria was clipped on both end by heart shaped clips, where one end was fixed at the bottom of 10 ml of tissue bath made of physiological saline solution, and temperature maintained at 37° C. The other end of the atria was connected to a force transducer, and isometric contractions and beating rate of the right atria were recorded by COULBOURN AT-High-Speed VideoFigure. After the samples were given 250 mg of contractions and reach equilibrium the following experiments were carried out: • (a) β-adrenoceptor blocking action
Cumulative administration interval was when the previous concentration reached its greatest effect, the next concentration would be immediately given.
The equation is as follows: pA2=−Log KB Log(DRADJ−1)=nlog[B]−LogKB [formula]
[B] Test compound concentration in moles • KB: equilibrium dissociation constant • n: value of slope DR: test EC50 divided by control EC50 • CF: EC50 of second or third control groups divided by EC50 of first control group (c) Effect of Compound on the Increase of Spontaneous Beating in Right Atrium Caused by CaCl2

T2 sequence (P18090 whole entry): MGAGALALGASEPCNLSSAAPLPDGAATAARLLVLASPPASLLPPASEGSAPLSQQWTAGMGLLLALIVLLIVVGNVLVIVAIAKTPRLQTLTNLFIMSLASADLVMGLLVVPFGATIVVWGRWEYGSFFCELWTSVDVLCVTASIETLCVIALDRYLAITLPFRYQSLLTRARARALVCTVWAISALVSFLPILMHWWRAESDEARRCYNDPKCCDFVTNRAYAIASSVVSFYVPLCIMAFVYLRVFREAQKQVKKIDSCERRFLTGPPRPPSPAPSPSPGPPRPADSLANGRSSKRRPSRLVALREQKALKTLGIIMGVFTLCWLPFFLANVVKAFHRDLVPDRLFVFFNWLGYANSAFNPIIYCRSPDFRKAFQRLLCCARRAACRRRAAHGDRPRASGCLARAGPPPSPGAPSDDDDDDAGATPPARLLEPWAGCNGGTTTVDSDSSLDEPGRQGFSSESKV
T1 sequence (Q8K4Z4 whole entry): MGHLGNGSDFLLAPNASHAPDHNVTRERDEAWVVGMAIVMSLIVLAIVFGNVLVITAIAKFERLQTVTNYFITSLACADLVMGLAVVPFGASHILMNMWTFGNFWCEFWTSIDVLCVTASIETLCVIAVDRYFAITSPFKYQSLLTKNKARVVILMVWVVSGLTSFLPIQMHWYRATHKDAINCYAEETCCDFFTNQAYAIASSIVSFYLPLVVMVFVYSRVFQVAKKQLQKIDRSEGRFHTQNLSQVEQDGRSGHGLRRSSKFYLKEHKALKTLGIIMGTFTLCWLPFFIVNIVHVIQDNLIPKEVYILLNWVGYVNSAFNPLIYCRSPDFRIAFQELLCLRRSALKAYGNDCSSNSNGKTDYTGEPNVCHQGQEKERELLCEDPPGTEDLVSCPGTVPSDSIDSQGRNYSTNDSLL

Structure (SMILES): COc1cc(C=O)ccc1OCC(O)CNC(C)(C)C (stereo not drawn) [Vanidilol, reference compound]
- direct tracheal relaxation effect [1]: dose-dependant tracheal relaxation effect
- effect on right atrium relative to tracheal (selectivity ratio of β1 type adrenoceptor) ([2]; from average pA2 difference between right atrium and tracheal): 0.98 ×
- selectivity on the type of β-adrenoceptor ([2]; β1:β2): non-selective
